According to the NIST ThermoML archive (doi:10.1021/je800664z):
± gives the expanded uncertainty stated by the source.

Test: xn = mol fraction of the nth substance listed
Details: for surface tension liquid-gas: Capillary rise; for mass density / viscosity: 101 kPa, Liquid

C1COCO1 [1,3-dioxolane] + CC(C)O
Details | mass density, 288.15 K [kg/m3] | mass density, 298.15 K [kg/m3] | mass density, 308.15 K [kg/m3] | surface tension liquid-gas, 288.15 K [mN/m] | surface tension liquid-gas, 298.15 K [mN/m] | surface tension liquid-gas, 308.15 K [mN/m] | viscosity, 288.15 K [mPa·s] | viscosity, 298.15 K [mPa·s] | viscosity, 308.15 K [mPa·s]
x1 = 0.05 | 802.01 ± 0.47 | 793.33 ± 0.48 | 784.33 ± 0.49 | 21.98 ± 0.13 | 21.22 ± 0.13 | 20.48 ± 0.13 | 2.285 ± 0.037 | 1.69 ± 0.027 | 1.299 ± 0.021
x1 = 0.1 | 814.65 ± 0.45 | 805.66 ± 0.46 | 796.38 ± 0.48 | 22.23 ± 0.13 | 21.52 ± 0.13 | 20.8 ± 0.13 | 1.846 ± 0.03 | 1.429 ± 0.023 | 1.126 ± 0.018
x1 = 0.15 | 827.45 ± 0.43 | 818.26 ± 0.44 | 808.69 ± 0.46 | 22.53 ± 0.13 | 21.8 ± 0.13 | 21.1 ± 0.13 | 1.564 ± 0.025 | 1.237 ± 0.02 | 0.999 ± 0.017
x1 = 0.2 | 840.43 ± 0.41 | 831.03 ± 0.43 | 821.18 ± 0.44 | 22.85 ± 0.13 | 22.1 ± 0.13 | 21.42 ± 0.13 | 1.371 ± 0.022 | 1.099 ± 0.018 | 0.895 ± 0.015
x1 = 0.25 | 853.56 ± 0.39 | 843.97 ± 0.41 | 833.89 ± 0.42 | 23.2 ± 0.13 | 22.4 ± 0.13 | 21.7 ± 0.13 | 1.221 ± 0.02 | 0.992 ± 0.017 | 0.817 ± 0.014
x1 = 0.3001 | 866.86 ± 0.37 | 857.09 ± 0.39 | 846.77 ± 0.4 | 23.57 ± 0.13 | 22.75 ± 0.13 | 22 ± 0.13 | 1.105 ± 0.018 | 0.908 ± 0.016 | 0.756 ± 0.014
x1 = 0.35 | 880.33 ± 0.35 | 870.34 ± 0.37 | 859.8 ± 0.38 | 23.95 ± 0.13 | 23.12 ± 0.13 | 22.33 ± 0.13 | 1.012 ± 0.017 | 0.84 ± 0.015 | 0.706 ± 0.013
x1 = 0.4 | 893.96 ± 0.33 | 883.74 ± 0.35 | 873.01 ± 0.36 | 24.38 ± 0.13 | 23.5 ± 0.13 | 22.7 ± 0.13 | 0.934 ± 0.016 | 0.784 ± 0.014 | 0.667 ± 0.013
x1 = 0.45 | 907.75 ± 0.31 | 897.31 ± 0.33 | 886.41 ± 0.35 | 24.83 ± 0.13 | 23.93 ± 0.13 | 23.12 ± 0.13 | 0.874 ± 0.015 | 0.74 ± 0.013 | 0.637 ± 0.012
x1 = 0.5 | 921.7 ± 0.29 | 911.08 ± 0.31 | 899.98 ± 0.33 | 25.32 ± 0.13 | 24.42 ± 0.13 | 23.55 ± 0.13 | 0.823 ± 0.014 | 0.72 ± 0.013 | 0.609 ± 0.012
x1 = 0.55 | 935.82 ± 0.27 | 925.02 ± 0.29 | 913.73 ± 0.31 | 25.85 ± 0.14 | 24.92 ± 0.13 | 24.03 ± 0.13 | 0.779 ± 0.014 | 0.671 ± 0.013 | 0.586 ± 0.012
x1 = 0.6 | 950.11 ± 0.25 | 939.14 ± 0.27 | 927.66 ± 0.29 | 26.43 ± 0.14 | 25.48 ± 0.13 | 24.55 ± 0.13 | 0.745 ± 0.014 | 0.645 ± 0.012 | 0.568 ± 0.012
x1 = 0.65 | 964.58 ± 0.23 | 953.43 ± 0.25 | 941.79 ± 0.27 | 27.05 ± 0.14 | 26.1 ± 0.14 | 25.15 ± 0.13 | 0.719 ± 0.013 | 0.626 ± 0.012 | 0.555 ± 0.011
x1 = 0.7001 | 979.2 ± 0.21 | 967.87 ± 0.23 | 956.09 ± 0.25 | 27.75 ± 0.14 | 26.77 ± 0.14 | 25.8 ± 0.13 | 0.697 ± 0.013 | 0.611 ± 0.012 | 0.542 ± 0.011
x1 = 0.75 | 994.01 ± 0.19 | 982.51 ± 0.21 | 970.57 ± 0.23 | 28.57 ± 0.14 | 27.53 ± 0.14 | 26.5 ± 0.14 | 0.682 ± 0.013 | 0.599 ± 0.012 | 0.531 ± 0.011
x1 = 0.8 | 1009 ± 0.2 | 997.36 ± 0.19 | 985.26 ± 0.2 | 29.47 ± 0.14 | 28.38 ± 0.14 | 27.28 ± 0.14 | 0.671 ± 0.013 | 0.592 ± 0.012 | 0.525 ± 0.011
x1 = 0.85 | 1024.2 ± 0.22 | 1012.38 ± 0.2 | 1000.13 ± 0.18 | 30.5 ± 0.14 | 29.33 ± 0.14 | 28.1 ± 0.14 | 0.657 ± 0.013 | 0.587 ± 0.012 | 0.52 ± 0.011
x1 = 0.9 | 1039.61 ± 0.25 | 1027.67 ± 0.23 | 1015.21 ± 0.21 | 31.63 ± 0.15 | 30.37 ± 0.14 | 28.95 ± 0.14 | 0.636 ± 0.012 | 0.585 ± 0.012 | 0.519 ± 0.011
x1 = 0.95 | 1055.25 ± 0.27 | 1043.29 ± 0.25 | 1030.71 ± 0.23 | 32.95 ± 0.15 | 31.43 ± 0.15 | 29.82 ± 0.14 | 0.635 ± 0.012 | 0.587 ± 0.012 | 0.523 ± 0.011
x1 = 1 | 1071.24 ± 0.29 | 1059.29 ± 0.27 | 1046.85 ± 0.25 | 34.37 ± 0.15 | 32.55 ± 0.15 | 30.67 ± 0.14 | 0.667 ± 0.013 | 0.596 ± 0.012 | 0.535 ± 0.011
